A short description of this test: EBV protein-peptide binding inhibitors, dose response, biochemical, fluorescence polarization (AID 1419). Particulars: cell-free protein-peptide binding, 2 h; for fold change: measured here: P channel fold over control, at 54 µM.

Each structure is given as a SMILES string. Calls of active or inactive are those of the source. How the calls were made is not given here. Some results are limits rather than exact numbers.

In general, IC50 refers to the point on the concentration scale where inhibition reaches its midpoint.

Take `CC1=CC(=C(C#N)c2nc3ccccc3s2)C=C(C)N1CC1CCCO1` (stereo not drawn): the IC50 is 3.9 µM and the fold change is 9.43.
In the same order, the values of `CN(C)c1ccc(/C=C/C(=O)c2cc(Cl)ccc2O)cc1` are 15.9 µM and 1.94.
In the same order, the values of `Nc1ccc(-c2nc3ccc(C(=O)O)cc3s2)cc1` are > 54 µM (inactive) and 1.
For the compound `CCCCn1c(=O)[nH]c2nc3cc(N)ccc3nc2c1=O`, the IC50 was under 0.42 µM and the fold change amounted to 110.
For `CN(C)CCCN1C(=O)c2cccc3c(Br)ccc(c23)C1=O` the same measures were 7.44 µM and 3.2.
In the case of `O=C1c2cccc3c(O)ccc(c23)C(=O)N1Cc1ccco1`, the IC50 is under 0.42 µM and the fold change worked out at 134.
Regarding `CCn1c(O)c(C=Nc2ccc(N3CCOCC3)cc2)c(=O)n(CC)c1=S`, the half-maximal inhibitory concentration (IC50) was 4.91 µM and the fold change was 36.6.
For `O=C1CCN2C=Nc3cccc4ccc1c2c34` the same measures were under 0.42 µM and 171.
For `CC(C)c1ccc(/C=C/C(=O)n2nnc3ccccc32)cc1` the same measures were > 54 µM (inactive) and 0.857.
On to `O=C1CCNc2c(Cl)cc(Cl)cc21`, for which the half-inhibitory concentration (IC50) was 11.1 µM and the fold change is 2.51.
For `CSC1=N/C(=C\c2ccccc2F)C(=O)S1` the same measures were > 54 µM (inactive) and 1.05.
In the same order, the values of `COc1ccc(NC(=O)CSc2ccc3c4c(cccc24)C(=O)c2ccccc2-3)cc1` are 3.14 µM and 11.
In the same order, the values of `Cc1c2cc(O)c(=O)cc-2oc2cc(O)c(O)cc12` are 1 µM and 236.
As to `CCCCC1=CC2=C(c3ccco3)C(=O)C(C)(OC(=O)c3ccc(OC)cc3)C(=O)C2=CN1CCc1ccccn1` (stereo not drawn), the IC50 is > 54 µM (inactive) and the fold change was 1.16.
Regarding `Cc1ccc(NC(=O)CN2C(=O)S/C(=C/c3ccc(O)c([N+](=O)[O-])c3)C2=O)cc1C`, the IC50 was > 54 µM (inactive) and the fold change is 0.99.
Consider `Cc1ccc(/C=C2\Sc3ccccc3C2=O)s1`, for which the IC50 is > 54 µM (inactive) and the fold change is 1.61.
Consider `O=C(O)c1ccccc1C1=Nc2ccc(O)cc2Oc2cc(O)ccc21`, for which the 50% inhibitory concentration (IC50) was under 0.42 µM and the fold change was found to be 14.2.
Turning to `CCCCCC(=O)N/N=C/c1ccc(N(C)C)cc1`, the IC50 was > 54 µM (inactive) and the fold change was found to be 1.05.
Take `O=C(c1ccco1)[C@@H]1[C@@H]2C(=O)N(c3ccc(F)cc3)C(=O)[C@@H]2C2c3ccccc3C=CN21` (stereo partly drawn): the concentration for half-maximal inhibition (IC50) is 6.26 µM and the fold change stood at 2.53.
In the same order, the values of `Cc1cc[n+](-c2[nH]c(=O)sc2/C=N/N=C(\[O-])c2ccccc2)cc1C` are under 0.42 µM and 16.5.
`CCc1ccc2nc3sc(C(=O)N4CCc5ccccc54)c(N)c3cc2c1`: the IC50 is under 0.42 µM and the fold change is 16.6.
Regarding `O=C1C2C3C=CC(C3=C(c3ccccc3)c3ccccc3)C2C(=O)N1Cc1ccccc1` (stereo not drawn), the IC50 was > 54 µM (inactive) and the fold change was determined as 0.99.
In the same order, the values of `N#CC1=C(N)N2C(=C(C#N)C1c1ccccc1)Sc1ccccc12` (stereo not drawn) are > 54 µM (inactive) and 2.54.
Regarding `Nc1ccc2nonc2c1[N+](=O)[O-]`, the IC50 is under 0.42 µM and the fold change was determined as 41.
`COc1ccc(-n2cccc2/C=C2\C(=N)N3N=C(c4ccco4)SC3=NC2=O)cc1`: the IC50 is 2.85 µM and the fold change was determined as 1.17.
On to `Cn1nc(-c2ccc(Cl)cc2)nc2c(=O)n(C)c(=O)nc1-2`, for which the IC50 was 7.16 µM and the fold change was 3.19.
In the same order, the values of `CCn1cc(C(=O)NCc2ccccn2)c(=O)c2cc(S(=O)(=O)N3CCCCC3)ccc21` are 0.74 µM and 4.52.
For `Cc1ccccc1N1C(=O)c2cccc3c(N(C)CCO)ccc(c23)C1=O` the same measures were 0.74 µM and 14.
In the same order, the values of `O=S(=O)([N-]c1nc2ccccc2nc1-[n+]1ccc(-c2ccncc2)cc1)c1ccccc1` are 9.13 µM and 3.54.
Turning to `O=c1nc2c(O)cccn2c2c1c(=O)[nH]c1ccccc12`, the half-maximal inhibitory concentration (IC50) was under 0.42 µM and the fold change turned out to be 7.35.
On to `CCC(=O)Nc1nc2n(n1)C(c1ccc(OC)cc1)C=C(c1ccccc1)N2` (stereo not drawn), for which the IC50 was 5.14 µM and the fold change came out at 2.8.
Take `C=CCN1C(=O)/C(=C\C=C2\N(C)c3ccccc3C2(C)C)SC1=S`: the IC50 was 5.07 µM and the fold change stood at 8.39.
For `O=C(Nc1nnc(-c2ccccc2Cl)o1)c1cc2cc([N+](=O)[O-])ccc2s1` the same measures were > 54 µM (inactive) and 1.09.
In the case of `Nc1c(C(=O)NCC2CCCO2)sc2nc3c(c(-c4ccco4)c12)CC/C3=C\c1ccco1` (stereo not drawn), the half-maximal inhibitory concentration (IC50) was under 0.42 µM and the fold change was determined as 3.22.
In the same order, the values of `O=C1NC(=S)/C(=C\c2ccc(-c3ccccc3Cl)o2)S1` are 26.9 µM and 1.59.
For `O=C(Nc1ccncc1)Nc1ccc(F)cc1F` the same measures were > 54 µM (inactive) and 1.04.
For `NC(=O)c1cc2ccc(O)cc2oc1=NCc1ccccc1` the same measures were under 0.42 µM and 34.3.
For `Cc1cc(/C=N/NC(N)=S)c(O)c(/C=N/NC(N)=S)c1`, the concentration for half-maximal inhibition (IC50) was under 0.42 µM and the fold change was 26.6.
For the compound `Cc1ccc(C2C(C(=O)c3ccco3)=C(O)C(=O)N2c2nnc(C)s2)cc1` (stereo not drawn), the IC50 is > 54 µM (inactive) and the fold change turned out to be 1.75.
For `O=c1c(/C=N/Nc2ccccc2)c(Sc2nnnn2-c2ccccc2)nc2ccccn12`, the IC50 is 4.73 µM and the fold change was 37.5.
In the same order, the values of `Nc1cc2c3c(cccc3c1)C(=O)N(CCN1CCCC1)C2=O` are 4.78 µM and 3.92.
For `COc1cc(CN2CCN(c3cccc(C)c3C)CC2)cc(OC)c1O` the same measures were > 54 µM (inactive) and 1.03.
As to `Cc1cc2nc3c(=O)n(C4CCCCC4)c(=O)[nH]c3nc2cc1N`, the IC50 is under 0.42 µM and the fold change was 132.
In the same order, the values of `COC(=O)CCCCC1SCC(NC(=O)c2ccccc2)C1Cl` (stereo not drawn) are 10.8 µM and 2.16.
In the same order, the values of `CCN1C(=O)/C(=C\c2ccc(-c3ccc([N+](=O)[O-])cc3OC)o2)SC1=Nc1cccc(C(=O)O)c1` are > 54 µM (inactive) and 0.573.
In the same order, the values of `COc1cccc(CN2C(=O)c3cccc(N)c3C2=O)c1` are 4.47 µM and 2.76.
As for `Cc1ccc(/C=C/C(=O)OCc2nc(N)nc(Nc3ccccc3C)n2)o1`, the IC50 was > 54 µM (inactive) and the fold change was found to be 0.917.
In the same order, the values of `Cc1ccc[n+](-c2[nH]c(=O)sc2/C=N/NC(=O)c2ccccc2[O-])c1` are 34.2 µM (inactive) and 1.69.
For `CC(C)NC(=O)c1sc2nc(-c3cccs3)cc(-c3cccs3)c2c1N` the same measures were 2.1 µM and 15.4.

The values are drawn from PubChem BioAssay AID1419 (Emory University Molecular Libraries Screening Center, 2008).
